Assay results reported in patent US20170009228A1, “BIOLOGICAL MATERIALS AND THERAPEUTIC USES THEREOF” (IMPERIAL INNOVATIONS LIMITED, priority 2014, published 2017).

Tests used:
[1] = system: synovial membranes from RA patients; experiment: Cytokine synthesis in RA synovial membrane cells stimulated with FBG; assay type: cell-based, human; details: FBG 1.0-0.01 μM, 24 h
Excerpt: RA membrane cells (representing a mixed population of all synovial cell types) were isolated from synovial membranes obtained from patients undergoing joint replacement surgery as previously described (Brennan (1989)). RA synovial fibroblasts were isolated from the mixed population of RA membrane cells as previously described (Brennan (1989)). The study was approved by the local Trust ethics committee (Riverside NHS Research Committee), and waste tissue (synovium after joint replacement surgery) was obtained only after receiving signed informed consent from the patient and anonymyzing the tissue to protect patient identity.
Immediately after isolation, RA membrane cells and macrophages were cultured at 1×10^5 cells/well in RPMI 1640 containing 10% (v/v) FBS and 100 U/ml (Units/ml) penicillin/streptomycin in 96-well tissue culture plates for 24 hours before stimulation. […]
Supernatants were subsequently examined for the presence of the cytokines TNF-α, IL-6, and IL-8 by enzyme-linked immunosorbent assay (ELISA) according to the manufacturer's instructions. Absorbance was read on a spectrophotometric ELISA plate reader (Labsystems Multiscan Biochromic, Vantaa, Finland) and analyzed using the Ascent software program (Thermo Labsystems, Altrincham, UK).

[2] = system: TLR2 and TLR4 null mice; experiment: Intra-articular injection of FBG in TLR2 and TLR4 null mice; assay type: in vivo; details: 1 μg FBG, 3 days
Method: Representative sections of the knee joint of TLR2 (a) and TLR4 (b) null mice 3 days after intra-articular injection of 1 μg FBG. Sections are stained with hemotoxylin and eosin. Magnification ×10 (n=5 mice per genotype). (c) Quantification of joint inflammation, bone erosion, cartilage surface erosion and chondrocyte death in the knee joints of TLR2 (white bars) and TLR4 (black bars) null mice 3 days after intra-articular injection of 1 μg FBG. Data represent the mean+/−SD (n=5 per genotype).
Homozygous TLR2 and TLR4 deficient mice on a C57BL/6 background (an inbred strain of mice with a black coat) were obtained from B&K Universal (Hull, UK) Hoshino (1999) and Takeuchi (1999). Homozygous MyD88 deficient mice on a C57BL/6 background were provided by the Sanger Institute (Cambridge, UK). Age matched congenic inbred wild type C57B/L6 mice were obtained from Charles River (Margate, UK). For isolation of mouse embryo fibroblasts one female aged 8-10 weeks was mated with two males aged 8-10 weeks. For isolation of bone marrow derived macrophages mice were female and between 10-12 weeks of age at the time of experimentation.
Coronal tissue sections (4 μm) were cut at 7 depths throughout the joint; 80 μm apart and stained with hematoxylin and eosin or Safranin-O to assess joint pathology. Histopathologic changes were scored using the following parameters as described in Van Lent (2006). […]

[3] = system: wild type mice; experiment: Intra-articular injection of FBG in wild type mice, knee joint histology; assay type: in vivo
Method: Wild type mice were anesthetized by intraperitoneal injection of 150 μl of Hypnorm diluted 1:10 in sterile water and then injected with 100 ng, 1 or 3 μg FBG in 10 μl of sterile PBS into the right knee joint using a sterile 33-gauge microcannula. Control mice received an injection of 10 μl PBS alone or were not injected.
On days 3 and 7, mice were euthanized, the knee joints were excised and fixed in 10% (volume/volume) buffered formalin, decalcified, with 10% EDTA and processed to paraffin.
Coronal tissue sections (4 μm) were cut at 7 depths throughout the joint; 80 μm apart and stained with hematoxylin and eosin or Safranin-O to assess joint pathology.
Inflammation (the influx of inflammatory cells into synovium (infiltrate) and the joint cavity (exudates), was graded using an arbitrary scale from 0 (no inflammation) to 3 (severe inflammation). Chondrocyte death was determined as the percentage of cartilage area containing empty lacunae in relation to the total area. Cartilage surface erosion was determined as the amount of cartilage lost in relation to the total cartilage area. Bone destruction was determined in 10 different areas of the total knee joint section. Destruction was graded on a scale of 0 (no damage) to 3 (complete loss of bone structure). Histological analysis was performed by an investigator who was blinded to the experimental groups. The mean score for each animal in an experimental group was calculated by averaging the histopathologic scores in at least 5 section depths per joint.

[4] = 1 μg FBG, 3 days after injection

Q: What does the source list for “FBG: recombinant fibrinogen-like globe, 227 amino acid globular domain at the C terminal of tenascin-C”?
A: synthesis of IL-6, IL-8 and TNF-α [1]: further enhanced; joint inflammation ([2]; TLR2 null mice): able to induce joint inflammation; joint inflammation ([2]; TLR4 null mice): not in TLR4 null mice; inflammation and proteoglycan loss ([3]; 100 ng FBG intra-articular): No inflammation or proteoglycan loss; knee joint histology ([3]; 1 μg FBG intra-articular, 3 days): inflammatory cell infiltration (FIG. 6f), mild synovitis, pannus formation (FIG. 6g) and proteoglycan loss; histological quantification: cartilage surface erosion and bone damage [3, 4]: modest amount; histological quantification: cellular infiltrate, exudate and chondrocyte death [3, 4]: high levels; knee joint histology ([3]; 3 μg FBG intra-articular): A similar response; joint inflammation ([3]; wild type mice, intra-articular, 100 ng, 1 or 3 μg): transient and dose dependent stimulation of joint inflammation
